Data published in patent US7268160B2, “Remedies” (Takara Bio, Inc., priority 2000, dated 2007).

Columns and labels:
[1] = tested on: NGF production in the L-M cells; experiment: Enhancing activity for NGF production, Example 13 method (20 hours culture after addition); assay type: cell-based, murine; conditions: for activity at 6.25 µM: added amount 6.25 μM; for activity at 12.5 µM: added amount 12.5 μM; for Enhancement of NGF production (in words): L-M cells; for activity at 3.125 µM: added amount 3.125 μM
Experimental: (§1) L-M cells (ATCC CCL-1.2) from murine fibroblasts were suspended in an M199 medium (manufactured by ICN) containing 0.5% bactopeptone (manufactured by Gibco BRL) so as to have a concentration of 1.5×10^5 cells/mi. The suspension was put in a 96-well plate in an amount of 0.1 ml each well, and the cells were aseptically cultured. After culturing the cells for 3 days, the medium was removed therefrom, and exchanged with an M199 medium containing 0.5% bovine serum albumin (manufactured by Sigma). Caffeic acid (manufactured by Sigma, dimethyl suif oxide (DMSO) solution), a substance known to have enhancing activity for NGF production, was added to each well containing the cells, so as to have a final concentration of 0, 50, 100 or 200 μM, and the cells were cultured for 24 hours. One having a caffeic acid concentration of 0 μM was used as a negative control. In addition, the final concentration of DM50 in each well was adjusted to 0.1%. After the termination of the culture, the NGF concentration in the culture medium was determined by an enzyme immunoassay method (NGF Emax Immuno Assay System, manufactured by Promega). The degree of the enhancement for NGF production of caffeic acid at each added amount was expressed in percentage as the enhancement ratio (%) on the basis of the NGF concentration in the cell culture medium at each added amount, when the NGF concentration in the cell culture medium of the negative control was defined as 100%. The experiment was carried out twice, and an average value was taken. It was shown that the enhancing activity for NGF production of caffeic acid could be assayed by this method.
The enhancing activity for NGF production of each of the compounds (5) to (12), (17) to (22), (24) and (25) prepared in Preparation Examples 2 to 9 and Examples 1 to 8, and the compound (23) (rosemarinic acid; manufactured by Funakoshi), or caffeic acid (CA), 4-methylcatechol (4MC) and epinephrine (EN), substances conventionally known to enhance NGF production was assayed in the same manner as in Reference Example 1. In addition, the time period for cell culture after the addition of the compound was 20 hours. A negative control was set for every test of each compound. Each experiment was carried out twice, and an average value was taken.
(1) L-M cells (ATCC CCL-1.2) from murine fibroblasts were suspended in an M199 medium (manufactured by ICN) containing 0.5% bactopeptone (manufactured by Gibco) so as to have a concentration of 1.5×10^5 cells/ml. The suspension was put in a 96-well plate in an amount of 0.1 ml each well, and the cells were aseptically cultured. After culturing the cells for 3 days, the medium was removed therefrom, and exchanged with an M199 medium containing 0.5% bovine serum albumin (manufactured by Sigma). Thereto was added an yellow pigment (powder Sun Yellow No. 2, manufactured by San-Ei Gen F.F.I.) obtained by extraction from flower of Carthamus tinctorius LINNE) as the sample so as to have a final concentration of 0, 1.25, 2.5 or 5 mg/ml, and the cells were cultured for 20 hours. After the termination of the culture, the NGF concentration in the culture medium was assayed by an enzyme immunoassay method (NGF Emax Immuno Assay System, manufactured by Promega). The degree of the enhancement for NGF production was expressed in the percentage as an enhancement ratio (%), when the NGF concentration in the cell culture medium with no addition of the sample as the negative control was defined as 100%. The experiment was carried out twice, and an average value was taken. […]
The enhancing activity for NGF production of the purified safflomin A thus obtained was determined in the same manner as in Example 13. The purified safflomin A was added so as to have a fmal concentration of 0 or 2.5 mg/ml. […]

[2] = tested on: NGF production in the L-M cells; experiment: Enhancing activity for NGF production, Reference Example 1 method (24 hours culture, NGF enzyme immunoassay of culture medium); assay type: cell-based, murine; conditions: for Enhancement of NGF production (in words): L-M cells; for Enhancement Ratio (%): negative control = 100%
Experimental: as §1
The enhancing activity for NGF production of the compound (13) (manufactured by Funakoshi) was assayed in the same manner as in Reference Example 1. The compound (13) was added so as to have a final concentration of 0, 0.5, 1, 2, 5, 10, 20 or 50 μM.
The enhancing activity for NGF production of a compound (14) (manufactured by Sigma) was assayed in the same manner as in Reference Example 1. The compound (14) was added so as to have a final concentration of 0, 50, 100 or 200 μM.
The enhancing activity for NGF production of a compound (15) (manufactured by Sigma) was assayed in the same manner as in Reference Example 1. The compound (15) was added so as to have a final concentration of 0, 12.5, 25 or 50 μM.
The enhancing activity for NGF production of a compound (16) (manufactured by Wako Pure Chemical Industries) was assayed in the same manner as in Reference Example 1. The compound (16) was added so as to have a final concentration of 0, 25, 50 or 100 μM.

[3] = Mus musculus, negative control = 100%, read-out: Enhancement Ratio (%)
[4] = Mus musculus, added amount 25 μM, negative control = 100%, read-out: Enhancement Ratio (%)
[5] = Mus musculus, added amount 50 μM, negative control = 100%, read-out: Enhancement Ratio (%)
[6] = Mus musculus, added amount 100 μM, negative control = 100%, read-out: Enhancement Ratio (%)
[7] = Mus musculus, added amount 200 μM, negative control = 100%, read-out: Enhancement Ratio (%)
[8] = added amount 100 μM, negative control = 100%

O=C(/C=C/c1ccc(O)c(O)c1)c1cc(O)ccc1O [Compound (18), 3,4,2′,5′-Tetrahydroxychalcone] showed an activity at 6.25 µM [1, 3] of 471%, an activity at 12.5 µM [1, 3] of 476% and an activity at 25 µM [1, 4] of 874%.

For Safflomin A, the “Enhancement of NGF production (in words)” value [1] was “enhanced NGF production of the L-M cells” and the “Enhancement Ratio (%)” value ([1]; added amount 2.5 mg/ml, negative control = 100%) was 130.7%.

For O=C(O)/C=C/c1ccc(O)c(O)c1 [CA, caffeic acid, reference compound], the activity at 50 µM [1, 5] was 165%, the activity at 100 µM [1, 6] was 170% and the activity at 200 µM [1, 7] was 200%. The “Enhancement of NGF production (in words)” value [2] was “enhanced NGF production in a concentration-dependent manner”, the “Enhancement Ratio (%)” value ([2]; added amount 50 μM) was 89.7% and the “Enhancement Ratio (%)” value ([2]; added amount 100 μM) was 150%. The “Enhancement Ratio (%)” value ([2]; added amount 200 μM) was 349%.

For O=C(/C=C/c1ccc(O)c(O)c1)c1ccc(O)c(O)c1 [Compound (19), 3,4,3′,4′-Tetrahydroxychalcone], the activity at 12.5 µM [1, 3] was 269%, the activity at 25 µM [1, 4] was 312% and the activity at 50 µM [1, 5] was 844%.

O=C(/C=C/c1cc(O)c(O)c(O)c1)c1ccc(O)cc1O [Compound (17), 3,4,5,2′,4′-Pentahydroxychalcone] gave an activity at 12.5 µM [1, 3] of 195% and an activity at 25 µM [1, 4] of 598%.

O=C(C/C=C/c1ccc(O)c(O)c1)C12CC3CC(CC(C3)C1)C2 [Compound (11), 1-Adamantyl-4-(3,4-dihydroxyphenyl)-3-buten-1-one] was tested, and the activity at 0.781 µM ([1]; Mus musculus, added amount 0.781 μM, negative control = 100%, read-out: Enhancement Ratio (%)) was 775% and the activity at 1.563 µM ([1]; Mus musculus, added amount 1.563 μM, negative control = 100%, read-out: Enhancement Ratio (%)) was 866%.

Work on O=C(/C=C/c1ccc(O)c(O)c1)C12CC3CC(CC(C3)C1)C2 [Compound (9), 1-Adamantyl-3-(3,4-dihydroxyphenyl)-2-propen-1-one] yielded an activity at 3.125 µM [1, 3] of 206%, an activity at 6.25 µM [1, 3] of 550% and an activity at 12.5 µM [1, 3] of 810%.

Isoliquiritigenin [Compound (14)] was tested, and the “Enhancement of NGF production (in words)” value [2] was “enhanced NGF production in the L-M cells in a concentration-dependent manner”, the “Enhancement Ratio (%)” value ([2]; added amount 50 μM) was 310% and the “Enhancement Ratio (%)” value ([2]; added amount 100 μM) was 550%. The “Enhancement Ratio (%)” value ([2]; added amount 200 μM) was 1884%.

In the case of α-Hydroxybutein [Compound (25)], the “Enhancement Ratio (%)” value ([1]; added amount 31.25 μM, negative control = 100%) is reported as 160.6%, the “Enhancement Ratio (%)” value ([1]; added amount 62.5 μM, negative control = 100%) is reported as 183.6% and the “Enhancement Ratio (%)” value ([1]; added amount 125 μM, negative control = 100%) is reported as 273.6%. The “Enhancement Ratio (%)” value ([1]; added amount 250 μM, negative control = 100%) was 495.3%.

In the case of Rosmarinic acid [Compound (23)], the “Enhancement Ratio (%)” value [1, 8] is reported as 110.9% and the “Enhancement Ratio (%)” value ([1]; added amount 200 μM, negative control = 100%) is reported as 131.1%.

For Xanthoangelol [Compound (24)], the “Enhancement Ratio (%)” value ([1]; added amount 25 μM, negative control = 100%) was 126.1%, the “Enhancement Ratio (%)” value ([1]; added amount 50 μM, negative control = 100%) was 202.6% and the “Enhancement Ratio (%)” value [1, 8] was 265.7%.

In the case of COc1ccc(C(=O)/C=C/c2ccc(O)c(O)c2)c(OC)c1 [Compound (7), 3,4-Dihydroxy-2′,4′-dimethoxy chalcone], the activity at 6.25 µM [1, 3] is reported as 359%, the activity at 12.5 µM [1, 3] is reported as 410% and the activity at 25 µM [1, 4] is reported as 899%.

O=C(CCc1ccc(O)c(O)c1)c1ccc(O)cc1O [Compound (10), Dihydrobutein] showed an activity at 6.25 µM [1, 3] of 174%, an activity at 12.5 µM [1, 3] of 333% and an activity at 25 µM [1, 4] of 839%.

In the case of O=C(/C=C/c1ccc(O)c(O)c1)c1ccc(Cl)cc1Cl [Compound (6), 3,4-Dihydroxy-2′,4′-dichloro chalcone], the activity at 6.25 µM [1, 3] is reported as 763% and the activity at 12.5 µM [1, 3] is reported as 864%.

Work on CC(=O)C=Cc1ccc(O)c(O)c1 [Compound (8), 4-(3,4-Dihydroxyphenyl)-3-buten-2-one] yielded an activity at 50 µM [1, 5] of 375% and an activity at 100 µM [1, 6] of 676%.

In the case of O=C(/C=C/c1ccc(O)c(O)c1)c1cc(O)cc(O)c1 [Compound (20), 3,4,3′,5′-Tetrahydroxychalcone], the activity at 12.5 µM [1, 3] is reported as 346%, the activity at 25 µM [1, 4] is reported as 482% and the activity at 50 µM [1, 5] is reported as 692%.

CNC[C@H](O)c1ccc(O)c(O)c1 [EN, epinephrine, reference compound] gave an activity at 50 µM [1, 5] of 137%, an activity at 100 µM [1, 6] of 218% and an activity at 200 µM [1, 7] of 255%.

Work on O=C(/C=C/c1ccc(O)c(O)c1)c1ccccc1O [Compound (21), 3,4,2′-Trihydroxychalcone] yielded an activity at 25 µM [1, 4] of 223%, an activity at 50 µM [1, 5] of 229% and an activity at 100 µM [1, 6] of 502%.

O=C(/C=C/c1ccc(O)c(O)c1)c1ccc(O)c(O)c1O [Compound (22), 3,4,2′,3′,4′-Pentahydroxy chalcone] gave an activity at 50 µM [1, 5] of 124%, an activity at 100 µM [1, 6] of 130% and an activity at 200 µM [1, 7] of 242%.

COc1cc(/C=C/C(=O)CC(=O)/C=C/c2ccc(O)c(OC)c2)ccc1O [Compound (16), Curcumin] was tested, and the “Enhancement of NGF production (in words)” value [2] was “enhanced NGF production in the L-M cells in a concentration-dependent manner”, the “Enhancement Ratio (%)” value ([2]; added amount 25 μM) was 114% and the “Enhancement Ratio (%)” value ([2]; added amount 50 μM) was 116%. The “Enhancement Ratio (%)” value ([2]; added amount 100 μM) was 261%.

Work on CC(=O)Oc1ccc(C(=O)/C=C/c2ccc(OC(C)=O)c(OC(C)=O)c2)c(OC(C)=O)c1 [Compound (5), 3,4,2′,4′-Tetraacetylbutein] yielded an activity at 6.25 µM [1, 3] of 684%.

Compound Cc1ccc(O)c(O)c1 [Compound 4MC, 4-methylcatechol, reference compound] has an activity at 12.5 µM [1, 3] of 143% and an activity at 25 µM [1, 4] of 313%.

COc1cc(O)c(CC=C(C)C)c(O)c1C(=O)/C=C/c1ccc(O)cc1 [xanthohumol, Xanthohumol] was tested, and the “Enhancement of NGF production (in words)” value [1] was “enhanced NGF production in the L-M cells in a concentration-dependent manner”, the activity at 15.6 µM ([1]; Mus musculus, added amount 15.6 μM, negative control = 100%, read-out: Enhancement Ratio (%)) was 160% and the activity at 31.3 µM ([1]; Mus musculus, added amount 31.3 μM, negative control = 100%, read-out: Enhancement Ratio (%)) was 212%. For the same compound, the activity at 62.5 µM ([1]; Mus musculus, added amount 62.5 μM, negative control = 100%, read-out: Enhancement Ratio (%)) was 473% and the activity at 125 µM ([1]; Mus musculus, added amount 125 μM, negative control = 100%, read-out: Enhancement Ratio (%)) was 897%.

O=C(CC(O)Cc1ccc(O)c(O)c1)C12CC3CC(CC(C3)C1)C2 (centres unmarked) [Compound (12), 1-Adamantyl-3-hydroxy-4-(3,4-dihyroxyphenyl)-butan-1-one] gave an activity at 3.125 µM [1, 3] of 108%, an activity at 6.25 µM [1, 3] of 364% and an activity at 12.5 µM [1, 3] of 966%. It also gave an activity at 25 µM [1, 4] of 908%.

O=C(/C=C/c1ccc(O)c(O)c1)OCCc1ccccc1 [Compound (15), Caffeic acid phenylethylester] was tested, and the “Enhancement of NGF production (in words)” value [2] was “enhanced NGF production in the L-M cells in a concentration-dependent manner”, the “Enhancement Ratio (%)” value ([2]; added amount 12.5 μM) was 236% and the “Enhancement Ratio (%)” value ([2]; added amount 25 μM) was 263%. The “Enhancement Ratio (%)” value ([2]; added amount 50 μM) was 320%.
